“Also recorded” adds a separate entry of the source.
Experiments:
Assay type in all cases: physicochemical
[1] = Moisture sorption testing of besylate anhydrate salt (integrated vacuum microbalance); details: in the presence of water vapour, such as at elevated relative humidity
Protocol: Moisture sorption was measured with an integrated vacuum microbalance system. Approximately 11 mg of 4-({2-[(2S)-2-cyanopyrrolidinyl]-2-oxoethyl}amino)-N,N-dimethylcyclohexanecarboxamide besylate anhydrate salt was weighed into a sample pan of an integrated vacuum microbalance system (MB300G, VTI Corporation). The sample was dried at 60° C. under vacuum until the rate of weight loss was less than 0.015% in 2 minutes. After drying the sample was equilibrated at 25° C. and the relative humidity increased stepwise (adsorption) to 15, 25, 35, 45, 55, 65, 75, 85 and 95% Each relative humidity step was held until the sample equilibrated at that condition. Equilibrium was defined as a weight change of less than 0.015% in 2 minutes. The relative humidity was then decreased step wise (desorption) to 90, 80, 70, 60, 50, 40, 30 and 20% Each step was held until equilibrium was reached. The equilibrium condition was the same as in the sorption phase. The % w/w increase or decrease in moisture content of the sample is reported for each equilibrated RH condition.

[2] = Infrared (IR) studies of hydration/dehydration of besylate monohydrate
Protocol: The partially dehydrated form of the monohydrate Form 1 of Formula I is stable for at least 24 hours at room temperature and partial hydration to the monohydrate of Formula I can be recovered at higher relative humidity (RH).
Samples of trans-4-({2-[(2S)-2-cyanopyrrolidinyl]-2-oxoethyl}amino)-N,N-dimethylcyclohexane-carboxamide besylate monohydrate either as a pure solid or diluted in KBr powder were placed inside a FTIR spectrometer purged under dry N2 at room temperature (RT). […] Upon re-exposure of the partially dehydrated samples to the atmosphere for <1 min., the intensities of these IR bands are fully recovered. The FTIR spectrum of this experiment is in FIG. 4.

[3] = Moisture sorption testing of besylate monohydrate salt (integrated gas flow microbalance)
Protocol: Moisture sorption was measured with an integrated gas flow microbalance system. Approximately 20 mg of 4-({2-[(2S)-2-cyanopyrrolidinyl]-2-oxoethyl}amino)-N,N-dimethylcyclohexanecarboxamide besylate monohydrate salt was weighed into a sample pan of an integrated gas flow microbalance system (SGA100, VTI Corporation). The sample was dried at 60° C. under a dry nitrogen stream until the rate of weight loss was less than 0.015% in 5 minutes. After drying the sample was equilibrated at 25° C. and the relative humidity increased stepwise (adsorption) to 5, 15, 25, 35, 45, 55, 65, 75, 85 and 95% Each relative humidity step was held until the sample equilibrated at that condition. Equilibrium was defined as a weight change of less than 0.015% in 5 minutes. The relative humidity was then decreased step wise (desorption) to 90, 80, 70, 60, 50, 40, and 20% Each step was held until equilibrium was reached. The equilibrium condition was the same as in the sorption phase. The % w/w increase or decrease in moisture content of the sample is reported for each equilibrated RH condition.

[4] = Hygroscopicity / deliquescence of crystalline salts at elevated relative humidity
Excerpt: This is exemplified by the hygroscopicity of the crystalline hydrochloride (HCl) salt of trans-4-({2-[(2S)-2-cyanopyrrolidinyl]-2-oxoethyl}amino)-N,N-dimethylcyclohexanecarboxamide. […] That is, the benzenesulfonic acid salts of the present invention sorb much lower amounts of water when exposed to a broad range of humidities and can be prepared in a physically stable crystal form, thus enhancing their suitability as medicaments.

[5] = purged under dry N2 at room temperature

With CN(C)C(=O)C1CCC(NCC(=O)N2CCC[C@H]2C#N)CC1.O=S(=O)(O)c1ccccc1 (stereo partly drawn) [Form 2, trans-4-({2-[(2S)-2-cyanopyrrolidinyl]-2-oxoethyl}amino)-N,N-dimethylcyclohexanecarboxamide besylate anhydrate] the “conversion of anhydrate form” value [1] was “converts to the hydrate”.
With CN(C)C(=O)[C@H]1CC[C@H](NCC(=O)N2CCC[C@H]2C#N)CC1 [Form 1, trans-4-({2-[(2S)-2-cyanopyrrolidinyl]-2-oxoethyl}amino)-N,N-dimethylcyclohexanecarboxamide benzenesulfonate monohydrate] the “re-exposure time to the atmosphere after which IR bands are fully recovered” value ([2]; partially dehydrated samples re-exposed to the atmosphere) was < 1 min, the “time to reach dehydration equilibrium (IR bands of H2O)” value [2, 5] was ~30 min and the “time within which IR bands assigned to H2O decreased very rapidly” value [2, 5] was ≤ 10 min. For the same compound, the “stability of the partially dehydrated form” value ([2]; room temperature) was “at least 24 hours”, the “dehydration (loss of water)” value ([2]; room temperature, purged with or exposed to dried air or dry nitrogen (low relative humidity), benzenesulfonate monohydrate) was “loses water readily; also recorded: partial dehydration of the hydrate is facile” and the “re-hydration of the dehydrated form” value ([2]; upon exposure to atmospheric humidity / higher relative humidities, benzenesulfonate monohydrate) was “re-hydration occurs rapidly; also recorded: re-hydration to the monohydrate occurs very rapidly”. The water absorbed ([3]; relative humidity between 0% and 95% at 25° C.) was “less than 10 % w/w”, the “additional water sorbed by the monohydrate” value ([3]; up to 95% relative humidity, on top of monohydrate water content) was 1-2 % w/w and the “desorption of adsorbed water” value ([3]; when the relative humidity is decreased) was “readily desorbs”.
With CN(C)C(=O)[C@H]1CC[C@H](NCC(=O)N2CCC[C@H]2C#N)CC1.Cl (relative stereo) [HCl salt, trans-4-({2-[(2S)-2-cyanopyrrolidinyl]-2-oxoethyl}-amino)-N,N-dimethylcyclohexanecarboxamide hydrochloride] the time to deliquesce ([4]; 25° C., relative humidities greater than 75%) was “approximately 20 hours” and the time to deliquesce ([4]; 40° C., relative humidities of greater than 75%) was “approximately 24 hours”.

From US20090137658A1, “BENZENESULFONIC ACID SALT COMPOUNDS” (Tanabe Seiyaku Co.,Ltd., priority 2003, published 2009)
